The values below come from US20240408071A1, “NOVEL COMBINATION OF SEROTONIN RECEPTOR (5-HTR2B) ANTAGONIST AND AN IMMUNOMODULATOR AND CHEMOTHERAPEUTIC DRUGS FOR INHIBITION OF CANCER” (NATIONAL CENTRE FOR CELL SCIENCE, priority 2021, published 2024).

The target in experiment [1] is 5-HTR2B receptor subtype (Homo sapiens, UniProt P41595). The settings on record: more specific to 5-HTR2B; cited from earlier work.
Experiment [2] deals with OVA-specific CD8 and CD4 T cells in MC38-cOVA tumor. As to the kind of experiment: OVA-specific T cell response in MC38-cOVA tumor-bearing mice (CFSE, tetramer flow cytometry). It counts as in vivo. The protocol: FIG. 11 depicts the effect of 5-HTR antagonists on the antigen-specific CTL response MC38 tumor model in mice: (A) Representative experimental plan of the adoptive transfer experiment where NRG mice. In brief, NRG mice were inoculated with MC38 on one flank and B16F10 cells on the other. These mice received total lymph node cells from naïve C57BL/6J mice or MC38 tumor-bearing control or RS-127445 treated mice. (B) Tumor volume data from the above-described experiment was measured and plotted (C) Immunocytochemistry data showing expression of H2-Kb-[…]^+ (red) on MC38 cells transfected with pCL-neo-OVA plasmid on the right side and MC38 cells without transfection. DAPI is used as a counterstain. (D-E) C7BL/6J mice were inoculated with an MC38-ova cell line and treated with RS-127445 or left untreated. After 10 days of such treatment, Total lymph node cells were harvested tagged with CFSE, and cultured in the presence of ovalbumin protein (50 μg/ml) for 5 days. After 5 days cells were checked for CFSE expression by flow cytometry to check proliferation. Here is the data (D) showing the CFSE in CD8^+ cells. The statistical data of the total percentage of CFSE^− CD8 T cells corresponding with the percentage of proliferated CD8 T cells were plotted. (F-G) Flow cytometric data and statistical analysis of the percentage of intra-tumoral H-2Kb^− […] tetramer^+ CD8 population from the control and RS-127445 treated MC38-ova tumor-bearing mice. (H-I) Flow cytometric data and statistical analysis of the percentage of intra-tumoral H-2Kb^− […] tetramer^+CD69^+ activated CD8 population from the control and RS-127445 treated MC38 tumor-bearing mice. (J-K) Flow cytometric data and statistical analysis of the percentage of intra-tumoral H-2K^b-[…] tetramer^+IFN-γ^+Granzyme B^+CD8 T cell population from the control and RS-127445 treated MC38 tumor-bearing mice. (D-E) Histogram overlay and statistical data comparison showing relative MFI of granzyme B on IFN-γ^+ OT-I-tetramer^+ CD8a^+ T cells from MC38-ova tumor of control and RS-127445 treated mice. The data shown are representative of one of the two independent experiments. All the statistical analysis was performed using either Student's t-test or two-way ANOVA using Sidak's multiple comparison test. *P<0.05; **P<0.01; […]; ****P<0.0001 Error bar represents mean±standard error of means (SEM).
FIG. 12 depicts that 5-HTR2B signalling affects the antigen-specific proliferation of CD4 T cells: (A-B) Total CD4 T cells were harvested from the lymph node of OT-II mice and they were tagged with CFSE and cultured in vitro in the presence or absence of OT-II peptide (Ova323-339), IL-2, 5-HTR2B agonist BW-723C86 (10 μM), Serotonin (20 μM) or 5-HTR2B antagonist RS-127445 (15 μM) for 5 days. After 5 days the proliferation of OT-II tetramer^+ CD4 T cells was measured and plotted as histogram overlay (A) or as statistical data (B). (C-D) Flow cytometric data and statistical analysis of the percentage of intra-tumoral OT-II-tetramer^+ IFNγ^+ CD4 T cell population from the control and RS-127445 treated MC38-ova tumor-bearing mice. (E-F) Flow cytometric data and statistical analysis of the percentage of intra-tumoral OT-II-tetramer^+ IFNγ^+ CD4 T cell population from the control and RS-127445 treated MC38-ova tumor-bearing mice. (G) Histogram overlay and statistical data comparison showing relative MFI of IL-10 on OT-II-tetramer^+ CD4^+ T cells from MC38-ova tumor of control and RS-127445 treated mice. All the statistical analysis was performed using either Student's ‘t’ test or two-way ANOVA using Sidak's multiple comparison test. *P<0.05; **P<0.01; […]; ****P<0.0001 Error bar represents mean±standard error of means (SEM).
A simple adoptive transfer experiment was performed to study the enhancement of CTL response in general or antigen-specific. […]

Experiment [3] has as its system MC38 tumor. As to the kind of experiment: Adoptive transfer of lymph node cells into NRG mice bearing MC38 and B16F10 tumors: MC38 flank. It counts as in vivo. Particulars: donor mice treated 10 days; tumor-draining lymph node cells; MC38 flank (FIG. 11B). The protocol:
FIG. 11 depicts the effect of 5-HTR antagonists on the antigen-specific CTL response MC38 tumor model in mice: (A) Representative experimental plan of the adoptive transfer experiment where NRG mice. In brief, NRG mice were inoculated with MC38 on one flank and B16F10 cells on the other. These mice received total lymph node cells from naïve C57BL/6J mice or MC38 tumor-bearing control or RS-127445 treated mice. (B) Tumor volume data from the above-described experiment was measured and plotted (C) Immunocytochemistry data showing expression of H2-Kb-[…]^+ (red) on MC38 cells transfected with pCL-neo-OVA plasmid on the right side and MC38 cells without transfection. DAPI is used as a counterstain. (D-E) C7BL/6J mice were inoculated with an MC38-ova cell line and treated with RS-127445 or left untreated. After 10 days of such treatment, Total lymph node cells were harvested tagged with CFSE, and cultured in the presence of ovalbumin protein (50 μg/ml) for 5 days. After 5 days cells were checked for CFSE expression by flow cytometry to check proliferation. Here is the data (D) showing the CFSE in CD8^+ cells. The statistical data of the total percentage of CFSE^− CD8 T cells corresponding with the percentage of proliferated CD8 T cells were plotted. […]

Sequence of 5-HTR2B receptor subtype (P41595 whole entry): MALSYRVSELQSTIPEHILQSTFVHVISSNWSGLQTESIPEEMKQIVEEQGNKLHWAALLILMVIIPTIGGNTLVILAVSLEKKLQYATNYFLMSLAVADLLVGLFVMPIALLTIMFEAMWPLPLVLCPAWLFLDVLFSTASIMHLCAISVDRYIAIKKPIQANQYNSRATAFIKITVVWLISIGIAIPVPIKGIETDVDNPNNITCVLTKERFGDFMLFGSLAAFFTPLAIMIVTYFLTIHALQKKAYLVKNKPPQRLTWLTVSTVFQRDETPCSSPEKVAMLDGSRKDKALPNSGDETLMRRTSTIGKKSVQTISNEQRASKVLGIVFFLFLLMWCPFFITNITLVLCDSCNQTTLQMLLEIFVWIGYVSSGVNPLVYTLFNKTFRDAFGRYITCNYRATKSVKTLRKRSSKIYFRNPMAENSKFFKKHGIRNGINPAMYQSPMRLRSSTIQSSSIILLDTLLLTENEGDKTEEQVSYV

Turning to `CC(C)c1cc(-c2ccc(F)c3ccccc23)nc(N)n1` [RS-127445], in experiment [1], the “specificity to the 5-HTR2B receptor subtype” value is around 1000 times. For the same compound, the “Ova-specific IFNγ+ CD4 T cells in the tumor” value in experiment [2] (MC38-cOVA tumor, OT-II tetramer (FIG. 12C-D)) is given as “increased”. For the same compound, the “Ova-specific IL-10+ CD4 T cells in the tumor” value in experiment [2] (MC38-cOVA tumor, OT-II tetramer (FIG. 12E-G)) was “reduced”. In experiment [2] (OT-I tetramer (FIG. 11H-I)), the “CD69+ activated OVA-specific CTLs percentage in the tumor” value is listed as “enhanced”. In experiment [2] (OT-I tetramer (FIG. 11J-M)), the “IFNγ+ granzyme B+ effector OVA-specific CTLs percentage in the tumor” value is given as “enhanced”. Besides, in experiment [2] (OT-I tetramer, MC38-ova tumor (FIG. 11F-G)), the “overall percentage of OVA-specific CD8 T cell in the tumor” value is reported as “did not enhance the overall percentage”. Moreover, the “proliferation of CD8 T cells in the presence of OVA in vitro” value in experiment [2] (cells from treated MC38-cOVA tumor-bearing mice, ovalbumin 50 μg/ml, 5 days, CFSE (FIG. 11D-E)) was “proliferated at a better rate”. For the same compound, the “MC38 tumor growth after transfer of antagonist primed total immune cells” value in experiment [3] is “able to control MC38 tumor growth”.
